Data as given in patent US6420413B2, “Heterocycloalkylbenzocyclobutane and heteroarylbenzocyclobutane compounds” (Les Laboratories Servier, priority 2000, dated 2002).

How the values were obtained:
[1] = test system: level of serotonin, noradrenalin and dopamine in cingulate frontal cortex; experiment: Microdialysis experiment in the rat; type: in vivo; details: rat frontal cortex dialysate, 10 mg/kg subcutaneously
Experimental: Rats are anaesthetised with pentobarbital (60 mg/kg i.p.). They are placed in a Kopf stereotactic device and the cannula guide is implanted in the cingulate frontal cortex in accordance with the coordinates described in the Paxinos and Watson atlas (1982) as follows: AP=+2.2; L=±0.6; DV=−0.2. The rats are placed in separate cages and are not used in dialysis until 5 days later. […] The probe is perfused at a flow rate of 1 μl/mn with a solution of 147.2 mM NaCl, 4 mM KCl and 2.3 mM CaCl2 adjusted to pH 7.3 with a phosphate buffer (0.1 M). Two hours after implantation, samples are collected every 20 minutes for 4 hours. Three baseline samples are taken before administration of the products to be tested. The rats are left in their individual cages for the whole of the experiment. When the experiment is finished, the rats are decapitated and the brain is removed and frozen in isopentane. Sections of a thickness of 100 μm are cut and stained with cresyl violet, which allows verification of the location of the probes.
The simultaneous quantification of dopamine, norepinephrine and serotonin is carried out as follows: 20 μl dialysis samples are each diluted with 20 μl of mobile phase (NaH2PO4: 75 mM, EDTA: 20 μM, sodium 1-decanesulphonate: 1 mM, methanol: 17.5%, triethylamine: 0.01%, pH: 5.70) and 33 μl samples are analysed by HPLC using a reverse phase column thermostatically maintained at 45° C. and quantified by means of a coulometric detector. The potential of the first electrode of the detector is set at −90 mV (reduction) and that of the second at +280 mV (oxidation). The mobile phase is injected at a flow rate of 2 ml/mn using a pump. The sensitivity limits for dopamine, norepinephrine and serotonin are 0.55 fmol per sample. All the products of the invention are injected subcutaneously in a volume of 1.0 ml/kg. The products are dissolved in distilled water to which a few drops of lactic acid have been added if necessary.

[2] = test system: spontaneous marble-burying behaviour of mice; experiment: Marble-burying test in mice; type: in vivo; details: male NMRI mice, 30 minutes' free exploration, s.c.
Excerpt: This test enables evaluation of the capacity of pharmacological agents to inhibit the spontaneous marble-burying behaviour of mice, the inhibition being predictive of antidepressant and/or anti-impulsive action. Male mice of the NMRI strain (Iffa-Credo, l'Arbresle, France) weighing from 20 to 25 g on the day of the experiment are placed individually in Macrolon® boxes (30×18×19 cm) containing 5 cm of sawdust and covered with a perforated plexiglass plate. Twenty-four “tiger's eye” glass marbles are evenly distributed on the sawdust at the periphery of the box. At the end of 30 minutes' free exploration, the animals are removed from the box and the number of buried marbles is counted.

| Structure (SMILES) | increase of the level of dopamine (maximum % of the effect compared with the baseline level defined as 0%) [1] [%] | increase of the level of noradrenalin (maximum % of the effect compared with the baseline level defined as 0%) [1] [%] | increase of the level of serotonin (maximum % of the effect compared with the baseline level defined as 0%) [1] [%] | Marble-burying in mice, ID50 (inhibitory dose50) [2] [mg/kg s.c.] |
| --- | --- | --- | --- | --- |
| CN(C)CC1(C2(O)CCCCC2)Cc2cc3occc3cc21 (centres unmarked) [Example 5, 1-{5-[(Dimethylamino)methyl]-5,6-dihydrocyclobuta[f][1]benzofuran-5-yl}cyclohexanol] | 400±50 | 500±13 | 250±15 | 0.6 |
| CNCCC(Oc1ccc(C(F)(F)F)cc1)c1ccccc1 (centres unmarked) [Fluoxetine, fluoxetine, reference compound] | – | – | – | 8.03 |
